From patent US20060135501A1, “Piperidinyl-thiazole carboxylic acid derivatives as angiogenesis inhibitors” (priority 2002, published 2006)

Legend:
[1] = target: T1, rhVEGF165-biotin (Homo sapiens, UniProt P15692); assay: VEGF-Binding ELISA (dose-response); conditions: Table 6
T1 sequence (P15692 27-191 isoform P15692-4): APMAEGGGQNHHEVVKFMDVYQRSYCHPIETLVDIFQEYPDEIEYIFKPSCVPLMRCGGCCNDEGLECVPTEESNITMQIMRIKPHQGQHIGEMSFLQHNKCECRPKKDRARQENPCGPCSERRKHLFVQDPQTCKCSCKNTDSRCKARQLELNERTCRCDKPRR
Experimental: The potency of test substances as a VEGF-neutralising moiety is measured in an ELISA format. This assay measures the solution-phase interaction between rhVEGF165-biotin and test sample. Unbound VEGF165-biotin is then immobilised on a solid-phase anti-hVEGF antibody (R&D systems MAB293). The biotin signal is detected with streptavidin-alkaline phosphatase, which gives a colorimetric signal when incubated with p-nitrophenyl phosphate. Plates are read in a spectrophotometer at 405 nm.
Any test compound that binds to VEGF165-biotin and prevents it from binding to the antibody will lower the color signal and be recognized as a “hit”. Hits were defined as compounds that show>60% inhibition.
VEGF165-biotin+assay buffer ? 0% inhibition
Soluble VEGF receptor (sflt @ 4 nM) ? 70% inhibition
The primary screening of all library compounds was done at a compound concentration of 50 μM, followed by measuring dose-response effects of “hits” between 0.05 and 500 μM for the calculation of IC50 values.
The compounds were dissolved in DMSO and it was shown that the solvent has no effect on the assay at this concentration.

[2] = test system: PDGF binding to mouse 3T3 cells; assay: Platelet-Derived Growth Factor (PDGF) radioligand binding assay
Experimental: (§1) Compounds 1633-00382 and 1633-02177 were tested for selectivity by determining their effect on the following assays: • Basic Fibroblast Growth Factor (FGF)-Induced cell proliferation (Gospodarowicz D, Brown K D, Birdwell C R & Zetter B R (1978) J. Cell. Biol. 77: 774-788); • Epidermal Growth Factor (EGF) radioligand binding assay (Dittadi R, Gion M, Brazzale A., Bruscagnin G. (1990) Clin. Chem. 36: 849-854; Massague J (1983) J. Biol. Chem. 258:13614-13620); and • Platelet-Derived Growth Factor (PDGF) radioligand binding assay (Williams L T, Tremble P M, Lavin M F & Sunday M E (1984) J. Biol. Chem. 259 5287-5294

[3] = test system: basic FGF; assay: Basic Fibroblast Growth Factor (FGF)-induced cell proliferation; assay type: cell-based
Experimental: as §1

[4] = target: T2, EGF binding to human A431 cells (Homo sapiens, UniProt P00533); assay: Epidermal Growth Factor (EGF) radioligand binding assay
T2 construct: endogenous in cells; host or cells: A431
T2 sequence (P00533 25-1210): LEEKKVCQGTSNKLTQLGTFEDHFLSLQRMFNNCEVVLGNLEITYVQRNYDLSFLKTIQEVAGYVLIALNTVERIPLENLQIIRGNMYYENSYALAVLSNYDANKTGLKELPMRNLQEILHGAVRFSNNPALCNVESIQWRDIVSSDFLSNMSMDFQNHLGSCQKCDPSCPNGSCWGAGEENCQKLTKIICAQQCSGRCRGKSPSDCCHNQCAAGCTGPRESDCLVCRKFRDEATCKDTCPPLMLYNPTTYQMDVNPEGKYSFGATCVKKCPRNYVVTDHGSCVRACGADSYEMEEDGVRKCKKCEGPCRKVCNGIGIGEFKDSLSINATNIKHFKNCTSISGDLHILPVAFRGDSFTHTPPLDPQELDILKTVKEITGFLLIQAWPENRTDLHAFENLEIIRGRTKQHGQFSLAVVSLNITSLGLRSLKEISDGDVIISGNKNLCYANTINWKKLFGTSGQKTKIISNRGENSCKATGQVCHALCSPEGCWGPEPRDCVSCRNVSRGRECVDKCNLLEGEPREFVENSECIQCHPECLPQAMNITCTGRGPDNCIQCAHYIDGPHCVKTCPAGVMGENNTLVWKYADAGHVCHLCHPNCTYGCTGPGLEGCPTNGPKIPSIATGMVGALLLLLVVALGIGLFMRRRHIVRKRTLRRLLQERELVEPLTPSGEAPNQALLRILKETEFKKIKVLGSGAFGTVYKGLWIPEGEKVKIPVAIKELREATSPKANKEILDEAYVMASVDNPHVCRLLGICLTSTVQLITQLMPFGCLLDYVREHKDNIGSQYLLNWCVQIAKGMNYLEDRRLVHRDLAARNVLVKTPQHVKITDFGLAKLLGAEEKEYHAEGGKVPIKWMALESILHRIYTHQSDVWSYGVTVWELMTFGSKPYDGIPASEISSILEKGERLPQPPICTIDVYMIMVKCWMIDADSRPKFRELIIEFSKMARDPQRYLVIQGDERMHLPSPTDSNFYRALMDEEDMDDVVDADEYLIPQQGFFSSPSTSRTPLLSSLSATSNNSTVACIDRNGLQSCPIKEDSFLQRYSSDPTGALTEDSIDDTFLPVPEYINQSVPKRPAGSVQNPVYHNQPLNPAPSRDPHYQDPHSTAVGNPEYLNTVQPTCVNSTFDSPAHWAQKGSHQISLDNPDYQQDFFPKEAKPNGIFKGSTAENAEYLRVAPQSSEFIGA
Experimental: as §1

[5] = test system: human umbilical vein endothelial cells (HUVEC); assay: HUVEC proliferation assay co-stimulated with rhVEGF; assay type: cell-based; conditions: Homo sapiens, HUVEC, Table 6
Experimental: The HUVEC assay measures the potency of test substances to inhibit in vitro proliferation of human umbilical vein endothelial cells (HUVEC) when co-stimulated with recombinant human vascular endothelial growth factor (rhVEGF).
HUVEC are grown under defined conditions (EGM-2 medium, 37° C., 5% CO2 and 95% humidity). They are seeded into 48-well plates using EBM medium with only 1% serum and incubated for 24 h. This is to ensure that cells are not stimulated before treatment with VEGF and test compound.
Test compounds are diluted in medium to concentrations between 0.05 and 50 μM and dosed together with VEGF165 at 12 ng/ml. This VEGF concentration was determined in a VEGF-dose-response curve to be just sub-optimal for maximum cell proliferation. Cells are incubated for 48 h at above conditions and viable cell density is measured using a tetrazolium compound (MTS). Viable cells reduce MTS into a soluble formazan product, which has an absorbance maximum at 490 nm. The absorbance is directly proportional to cell density.
EBM+1% serum (no VEGF) ? Minimum or Blank
EBM+1% serum (12 ng/ml) ? Maximum

[6] = ***re-tested in full-concentration response assays

IC50 ([1]; **tested after re-synthesised) [µM]	IC50 ([1]; first test (unmarked value)) [µM]	inhibition of EGF binding [4]	IC50 [1, 6] [µM]	IC50 ([1]; *re-test 3 months later) [µM]	SMILES	inhibition of PDGF binding [2]	IC50 ([3]; Fibroblast, significant anti-proliferative activity, estimated value, read-out: anti-proliferative activity against basic FGF, estimated value) [µM]	cytotoxicity ([3]; at 10 μM)	IC50 ([5]; **tested after re-synthesised) [µM]	IC50 ([5]; first test (unmarked value)) [µM]	IC50 [5, 6] [µM]	IC50 ([5]; *re-test 3 months later) [µM]
18	12	did not inhibit			CN(C)c1cccc(C(=O)N2CCC(c3nc(C(=O)Nc4cc(CC(N)=O)ccc4Cl)cs3)CC2)c1 [Compound 1633-02177]	did not inhibit	0.406	moderate but not significant cytotoxicity	0.478	0.712		
4	0.655	did not inhibit	1	3.49	NC(=O)c1ccc(Cl)c(NC(=O)c2csc(C3CCN(C(=O)CSc4ncccn4)CC3)n2)c1 [Compound 1633-00382]	did not inhibit			20	0.938	12	16
